# Source: patent US20230295234A1, “ANTIMICROBIAL PEPTIDOMIMETICS” (SPEXIS AG, priority 2020, published 2023)
# Read-outs that look alike come from different tables or passages of the source. Peptide text beside a SMILES is read from it.
# Assays:
# [1] = system: Klebsiella pneumoniae SSI3010; conditions: SSI3010
# Outline: (§1)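 Peptides were made up as 1 mg/mL stocks in sterile water. Colonies in 0.85% saline were set to 0.5 McFarland, then diluted in cation-adjusted Mueller-Hinton II broth to about 5×10^5 CFU/mL. Inoculum was combined with two-fold serial peptide dilutions in water containing 0.002% (final) polysorbate 80.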
# [2] = system: Escherichia coli ATCC 25922; conditions: ATCC 25922
# Outline: as §1
# [3] = system: Escherichia coli MCR-1 Af 45
# Outline: as §1
# [4] = system: human red blood cells (hRBC); test: Hemolysis of human red blood cells; type: cell-based; conditions: red cells of human, 1 h
# Outline: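 Percent hemolysis is OD540 of peptide-treated supernatant relative to water-lysed cells. Each peptide was tested at 200 μg/mL against 20% (v/v) washed human erythrocytes. Incubation was 1 h at 37 °C, 300 rpm.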
# [5] = Mueller-Hinton broth II, 18-20 hours at 35° C.
Escherichia coli MCR-1 Af 45 MIC ([3]; MCR-1 Af 45),SMILES,Klebsiella pneumoniae SSI3010 MIC [1],Escherichia coli ATCC 25922 MIC [2],"Escherichia coli MCR-1 Af 45 MIC [3, 5]",Hemolysis at 0.2 g/L [4]
–,"CC[C@H](C)[C@H](NC(=O)[C@@H]1C[C@@H](O)CN1C(=O)[C@@H](N)C(C)C)C(=O)N[C@H](C(=O)N[C@@H](Cc1ccc(O)cc1)C(=O)N[C@@H]1C(=O)N[C@@H](CC(N)=O)C(=O)N[C@@H](CCCNC(=N)N)C(=O)N[C@@H](CCCCN)C(=O)N[C@@H]([C@@H](C)O)C(=O)N[C@H](CCN)C(=O)N[C@@H](CCCCN)C(=O)N[C@H](C(=O)N[C@@H](CCN)C(=O)N[C@@H](CCCNC(=N)N)C(=O)N[C@@H](Cc2ccc(O)cc2)C(=O)O)CSSC1(C)C)[C@@H](C)O [Example 167] (HELM PEPTIDE1{V.[Hyp].I.T.Y.[Pen].N.R.K.T.[NCC[C@@H](N[*:1])C(=O)[*:2]].K.C.[Dab].R.Y}$PEPTIDE1,PEPTIDE1,6:R3-13:R3$$$V2.0)",0.5 µg/mL,0.25 µg/mL,0.125 µg/mL,0%
–,"CC[C@H](C)[C@H](NC(=O)[C@@H]1C[C@@H](O)CN1C(=O)[C@@H](N)C(C)C)C(=O)N[C@H](C(=O)N[C@@H](Cc1ccc(O)cc1)C(=O)N[C@@H]1C(=O)N[C@@H](CC(N)=O)C(=O)N[C@@H](CCCNC(=N)N)C(=O)N[C@@H](CCCNC(=N)N)C(=O)N[C@@H]([C@@H](C)O)C(=O)N[C@H](CCN)C(=O)N[C@@H](CCCCN)C(=O)N[C@H](C(=O)N[C@@H](CCN)C(=O)N[C@@H](CCCNC(=N)N)C(=O)N[C@@H](Cc2ccc(O)cc2)C(=O)O)CSSC1(C)C)[C@@H](C)O [Example 168] (HELM PEPTIDE1{V.[Hyp].I.T.Y.[Pen].N.R.R.T.[NCC[C@@H](N[*:1])C(=O)[*:2]].K.C.[Dab].R.Y}$PEPTIDE1,PEPTIDE1,6:R3-13:R3$$$V2.0)",0.25 µg/mL,0.125 µg/mL,0.5 µg/mL,0%
–,"CC[C@H](C)[C@@H]1NC(=O)[C@@H](CCN)NC(=O)[C@H]([C@@H](C)O)NC(=O)[C@H](CCN)NC(=O)[C@H](CCCNC(=N)N)NC(=O)[C@H](CC(N)=O)NC(=O)[C@@H](NC(=O)[C@H](Cc2ccc(O)cc2)NC(=O)[C@@H](NC(=O)[C@@H](NC(=O)[C@@H]2C[C@@H](O)CN2C(=O)[C@@H](N)C(C)C)[C@@H](C)CC)[C@@H](C)O)C(C)(C)SSC[C@@H](C(=O)N[C@@H](CCN)C(=O)N[C@@H](CCCNC(=N)N)C(=O)N[C@@H](Cc2ccc(O)cc2)C(=O)O)NC1=O [Example 169] (HELM PEPTIDE1{V.[Hyp].I.T.Y.[Pen].N.R.[Dab].T.[NCC[C@@H](N[*:1])C(=O)[*:2]].I.C.[Dab].R.Y}$PEPTIDE1,PEPTIDE1,6:R3-13:R3$$$V2.0)",0.5 µg/mL,0.5 µg/mL,0.25 µg/mL,0%
–,"CC[C@H](C)[C@H](NC(=O)[C@@H]1C[C@@H](O)CN1C(=O)[C@@H](N)C(C)C)C(=O)N[C@H](C(=O)N[C@@H](Cc1ccc(O)cc1)C(=O)N[C@@H]1C(=O)N[C@@H](CC(N)=O)C(=O)N[C@@H](CCCNC(=N)N)C(=O)N[C@@H](CCN)C(=O)N[C@@H]([C@@H](C)O)C(=O)N[C@H](CCN)C(=O)N[C@@H](CO)C(=O)N[C@H](C(=O)N[C@@H](CCN)C(=O)N[C@@H](CCCNC(=N)N)C(=O)N[C@@H](Cc2ccc(O)cc2)C(=O)O)CSSC1(C)C)[C@@H](C)O [Example 170] (HELM PEPTIDE1{V.[Hyp].I.T.Y.[Pen].N.R.[Dab].T.[NCC[C@@H](N[*:1])C(=O)[*:2]].S.C.[Dab].R.Y}$PEPTIDE1,PEPTIDE1,6:R3-13:R3$$$V2.0)",0.5 µg/mL,0.25 µg/mL,0.5 µg/mL,0%
–,"CC[C@H](C)[C@H](NC(=O)[C@@H]1C[C@@H](O)CN1C(=O)[C@@H](N)C(C)C)C(=O)N[C@H](C(=O)N[C@@H](Cc1ccc(O)cc1)C(=O)N[C@@H]1C(=O)N[C@@H](CC(N)=O)C(=O)N[C@@H](CCCNC(=N)N)C(=O)N[C@@H](CCN)C(=O)N[C@@H]([C@@H](C)O)C(=O)N[C@H](CCN)C(=O)N[C@@H](Cc2ccc(O)cc2)C(=O)N[C@H](C(=O)N[C@@H](CCN)C(=O)N[C@@H](CCCNC(=N)N)C(=O)N[C@@H](Cc2ccc(O)cc2)C(=O)O)CSSC1(C)C)[C@@H](C)O [Example 171] (HELM PEPTIDE1{V.[Hyp].I.T.Y.[Pen].N.R.[Dab].T.[NCC[C@@H](N[*:1])C(=O)[*:2]].Y.C.[Dab].R.Y}$PEPTIDE1,PEPTIDE1,6:R3-13:R3$$$V2.0)",0.25 µg/mL,0.5 µg/mL,0.5 µg/mL,0%
–,"CC[C@H](C)[C@H](NC(=O)[C@@H]1C[C@@H](O)CN1C(=O)[C@@H](N)C(C)C)C(=O)N[C@H](C(=O)N[C@@H](Cc1ccc(O)cc1)C(=O)N[C@@H]1C(=O)N[C@@H](CC(N)=O)C(=O)N[C@@H](CCCNC(=N)N)C(=O)N[C@@H](CCN)C(=O)N[C@@H]([C@@H](C)O)C(=O)N[C@H](CCN)C(=O)N[C@@H](Cc2c[nH]c3ccccc23)C(=O)N[C@H](C(=O)N[C@@H](CCN)C(=O)N[C@@H](CCCNC(=N)N)C(=O)N[C@@H](Cc2ccc(O)cc2)C(=O)O)CSSC1(C)C)[C@@H](C)O [Example 172] (HELM PEPTIDE1{V.[Hyp].I.T.Y.[Pen].N.R.[Dab].T.[NCC[C@@H](N[*:1])C(=O)[*:2]].W.C.[Dab].R.Y}$PEPTIDE1,PEPTIDE1,6:R3-13:R3$$$V2.0)",0.5 µg/mL,0.5 µg/mL,0.5 µg/mL,0%
0.25 µg/mL,"CC[C@H](C)[C@H](NC(=O)[C@@H]1C[C@@H](O)CN1C(=O)[C@@H](N)C(C)C)C(=O)N[C@H](C(=O)N[C@@H](Cc1ccc(O)cc1)C(=O)N[C@@H]1C(=O)N[C@@H](CC(N)=O)C(=O)N[C@@H](CCCNC(=N)N)C(=O)N[C@@H](CCN)C(=O)N[C@@H]([C@@H](C)O)C(=O)N[C@H](CCN)C(=O)N[C@@H](CC(N)=O)C(=O)N[C@H](C(=O)N[C@@H](CCN)C(=O)N[C@@H](CCCNC(=N)N)C(=O)N[C@@H](Cc2ccc(O)cc2)C(=O)O)CSSC1(C)C)[C@@H](C)O [Example 173] (HELM PEPTIDE1{V.[Hyp].I.T.Y.[Pen].N.R.[Dab].T.[NCC[C@@H](N[*:1])C(=O)[*:2]].N.C.[Dab].R.Y}$PEPTIDE1,PEPTIDE1,6:R3-13:R3$$$V2.0; N-terminus and C-terminus assumed)",0.5 µg/mL,0.25 µg/mL,–,0%
–,"CC[C@H](C)[C@H](NC(=O)[C@@H]1C[C@@H](O)CN1C(=O)[C@@H](N)C(C)C)C(=O)N[C@H](C(=O)N[C@@H](Cc1ccc(O)cc1)C(=O)N[C@@H]1C(=O)N[C@@H](CC(N)=O)C(=O)N[C@@H](CCCNC(=N)N)C(=O)N[C@@H](CCN)C(=O)N[C@@H]([C@@H](C)O)C(=O)N[C@H](CCN)C(=O)N[C@@H](CCN)C(=O)N[C@H](C(=O)N[C@@H](CCN)C(=O)N[C@@H](CCCNC(=N)N)C(=O)N[C@@H](Cc2ccc(O)cc2)C(=O)O)CSSC1(C)C)[C@@H](C)O [Example 174] (HELM PEPTIDE1{V.[Hyp].I.T.Y.[Pen].N.R.[Dab].T.[NCC[C@@H](N[*:1])C(=O)[*:2]].[Dab].C.[Dab].R.Y}$PEPTIDE1,PEPTIDE1,6:R3-13:R3$$$V2.0)",0.25 µg/mL,0.125 µg/mL,0.0625 µg/mL,0%
–,"CC[C@H](C)[C@H](NC(=O)[C@@H]1C[C@@H](O)CN1C(=O)[C@@H](N)C(C)C)C(=O)N[C@H](C(=O)N[C@@H](Cc1ccc(O)cc1)C(=O)N[C@@H]1C(=O)N[C@@H](CC(N)=O)C(=O)N[C@@H](CCCNC(=N)N)C(=O)N[C@@H](CCN)C(=O)N[C@@H]([C@@H](C)O)C(=O)N[C@H](CCN)C(=O)N[C@@H](CCCCN)C(=O)N[C@H](C(=O)N[C@@H](CCN)C(=O)N[C@@H](CC(C)C)C(=O)N[C@@H](Cc2ccc(O)cc2)C(=O)O)CSSC1(C)C)[C@@H](C)O [Example 175] (HELM PEPTIDE1{V.[Hyp].I.T.Y.[Pen].N.R.[Dab].T.[NCC[C@@H](N[*:1])C(=O)[*:2]].K.C.[Dab].L.Y}$PEPTIDE1,PEPTIDE1,6:R3-13:R3$$$V2.0)",0.5 µg/mL,0.25 µg/mL,0.25 µg/mL,0%
–,"CC[C@H](C)[C@H](NC(=O)[C@@H]1C[C@@H](O)CN1C(=O)[C@@H](N)C(C)C)C(=O)N[C@H](C(=O)N[C@@H](Cc1ccc(O)cc1)C(=O)N[C@@H]1C(=O)N[C@@H](CC(N)=O)C(=O)N[C@@H](CCCNC(=N)N)C(=O)N[C@@H](CCN)C(=O)N[C@@H]([C@@H](C)O)C(=O)N[C@H](CCN)C(=O)N[C@@H](CCCCN)C(=O)N[C@H](C(=O)N[C@@H](CCN)C(=O)N[C@@H](CO)C(=O)N[C@@H](Cc2ccc(O)cc2)C(=O)O)CSSC1(C)C)[C@@H](C)O [Example 176] (HELM PEPTIDE1{V.[Hyp].I.T.Y.[Pen].N.R.[Dab].T.[NCC[C@@H](N[*:1])C(=O)[*:2]].K.C.[Dab].S.Y}$PEPTIDE1,PEPTIDE1,6:R3-13:R3$$$V2.0)",0.5 µg/mL,0.25 µg/mL,0.25 µg/mL,0%
